Laboratory results reported in ChEMBL document CHEMBL1147415, “Inhibition kinetics of carba- and C-fucosyl analogues of GDP-fucose against fucosyltransferase V: implication for the reaction mechanism” (Bioorg Med Chem Lett, 2004).

How the values were obtained:
[1] = biological target: T1, 4-galactosyl-N-acetylglucosaminide 3-alpha-L-fucosyltransferase FUT5 (Homo sapiens, UniProt Q11128); assay: Inhibition of Fucosyltransferase 5 by the compound was evaluated; Competitive inhibition
T1 sequence (Q11128 whole entry): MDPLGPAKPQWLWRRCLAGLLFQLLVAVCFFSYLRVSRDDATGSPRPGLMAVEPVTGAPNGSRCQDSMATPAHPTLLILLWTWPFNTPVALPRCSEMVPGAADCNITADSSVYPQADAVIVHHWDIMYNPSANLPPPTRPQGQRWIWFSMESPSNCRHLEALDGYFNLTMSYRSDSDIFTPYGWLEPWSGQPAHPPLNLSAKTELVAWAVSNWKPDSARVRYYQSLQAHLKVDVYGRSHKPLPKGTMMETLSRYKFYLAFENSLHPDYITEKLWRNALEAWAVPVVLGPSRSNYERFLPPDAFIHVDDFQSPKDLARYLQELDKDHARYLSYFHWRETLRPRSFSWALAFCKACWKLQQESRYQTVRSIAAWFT

[2] = biological target: T1, 4-galactosyl-N-acetylglucosaminide 3-alpha-L-fucosyltransferase FUT5; assay: Inhibition of Fucosyltransferase 5 by the compound was evaluated; Weak competitive inhibition

Row | Ki [1] | Ki [2] | SMILES
1 | 67.1 µM |  | CC1CC(OP(=O)(O)OP(=O)(O)OC[C@H]2OC(n3cnc4c(O)nc(N)nc43)[C@H](O)[C@@H]2O)C(O)C(O)C1O (some centres not stated)
2 |  | 889 µM | CC1OC(CP(=O)(O)OP(=O)(O)OC[C@H]2OC(n3cnc4c(=O)[nH]c(N)nc43)[C@H](O)[C@@H]2O)C(O)C(O)C1O (some centres not stated)
